Measured values from patent publication EP0768881B1, “ANTI-HIV TRIPLE COMBINATION COMPRISING ZIDOVUDINE, LAMIVUDINE AND LOVIRIDE” (JANSSEN PHARMACEUTICA N.V., priority 1994, dated 1996).

What was measured:
[1] = system: CD4 cells; conditions: patients receiving established anti-HIV drugs alone; count then decreases again; cited from earlier work
[2] = Pharmacokinetic interaction between components in open case-control study; type: in vivo, HIV-1 infected patients; conditions: between lamivudine and zidovudine or loviride
Procedure: The triple combination of zidovudine (200 mg t.i.d.), lamivudine (300 mg b.i.d.) and loviride (100 mg t.i.d.) versus the double combination of zidovudine (200 mg t.i.d.) and loviride (100 mg t.i.d.) was assessed in an open case-control study. Twenty HIV-1 infected patients with a positive p24 antigen test at baseline were included. Both combinations were well tolerated. Serious drug-induced safety-related abnormalities were not observed. […] The median CD4 count (% versus baseline) during therapy in the group of patients treated with the triple combination were compared with the median CD4 count in the group of patients treated with the double combination in Table 1. The median p24 antigen count (% versus baseline) of the group of patients treated with the triple combination were compared with the median p24 antigen count of the group of patients treated with double combination in Table 2.

Row | Structure (SMILES) | CD4 count increase [1] | pharmacokinetic interaction [2]
1 | Nc1ccn([C@H]2CS[C@@H](CO)O2)c(=O)n1 [lamivudine, (-)-2',3'-dideoxy-3'-thiacytidine] | about 20% | No clinically relevant pharmacokinetic interaction
2 | Cc1cn([C@H]2C[C@H](N=[N+]=[N-])[C@@H](CO)O2)c(=O)[nH]c1=O [zidovudine, 3'-azido-3'-deoxythymidine] | about 20% | 
